Key:
[1] = system: Sagittaria pygmaea, L.; test: Preemergence weed control under flooded paddy conditions, SAGPY (Arrowhead (Pygmaea)); format: in vivo; settings: flooded paddy
[2] = system: Cyperus serotinus, Rottb.; test: Preemergence weed control under flooded paddy conditions, CYPSE (Flatsedge); format: in vivo
[3] = system: Oryza sativa, (L.) Tebonnet; test: Rice tolerance to post-transplant applications under flooded paddy conditions (Example 187), ORYSAT (Rice, Tebonnet)
[4] = system: Echinochloa oryzoides (Ard.) Fritsch.; test: Preemergence weed control under flooded paddy conditions, ECHORC (Watergrass (Calif.)); format: in vivo; settings: flooded paddy
[5] = system: Cyperus iria; test: Preemergence weed control under flooded paddy conditions, CYPIR (Rice Flatsedge); format: in vivo; settings: flooded paddy
[6] = system: Monochoria vaginalis, Presl.; test: Preemergence weed control under flooded paddy conditions, MOOVA (Monochoria); format: in vivo; settings: flooded paddy
[7] = Rate 0.0320 kg/ha, preemergence, rated 3-4 weeks after treatment
[8] = Rate 0.0620 kg/ha, preemergence, rated 3-4 weeks after treatment
[9] = Rate 0.1250 kg/ha, preemergence, rated 3-4 weeks after treatment
[10] = Rate 0.2500 kg/ha, preemergence, rated 3-4 weeks after treatment
[11] = Rate 0.5000 kg/ha, preemergence, rated 3-4 weeks after treatment
[12] = Rate 0.0320 kg/ha, rated 3-4 weeks after treatment
[13] = Rate 0.0620 kg/ha, rated 3-4 weeks after treatment
[14] = Rate 0.1250 kg/ha, rated 3-4 weeks after treatment
[15] = Rate 0.2500 kg/ha, rated 3-4 weeks after treatment
[16] = Rate 0.5000 kg/ha, rated 3-4 weeks after treatment
[17] = Rate 0.0320 kg/ha, preemergence weeds, rated three to four weeks after treatment
[18] = Rate 0.0620 kg/ha, preemergence weeds, rated three to four weeks after treatment
[19] = Rate 0.1250 kg/ha, preemergence weeds, rated three to four weeks after treatment
[20] = Rate 0.2500 kg/ha, preemergence weeds, rated three to four weeks after treatment
Note: meaning of each grade not given here.

Cc1ccc(OCC(=O)c2ccc(Cl)cc2)c(-c2nsc3ccc(-n4c(=O)cc(C(F)(F)F)n(C)c4=O)cc23)c1 [Example 538, 2,4(1H,3H)-Pyrimidinedione, 3-{3-{6-[(p-chlorophenacyl)oxy]-m-tolyl}-1,2-benzisothiazol-5-yl}-1-methyl-6-(trifluoromethyl)-]
1.0: herbicidal effect rating ORYSAT [3, 14] | herbicidal effect rating ORYSAT [3, 15] | herbicidal effect rating ORYSAT [3, 16]
4.7: herbicidal effect rating, ECHORC [4, 9]
9.0: herbicidal effect rating, ECHORC [4, 10] | herbicidal effect rating, ECHORC [4, 11] | herbicidal effect rating, CYPIR [5, 11] | herbicidal effect rating, MOOVA [6, 7] | herbicidal effect rating, MOOVA [6, 8] | herbicidal effect rating, MOOVA [6, 9] | herbicidal effect rating, MOOVA [6, 10] | herbicidal effect rating, MOOVA [6, 11]
3.4: herbicidal effect rating, ECHORC [4, 8]
2.1: herbicidal effect rating, ECHORC [4, 7]
0.0: herbicidal effect rating, SAGPY [1, 7] | herbicidal effect rating, SAGPY [1, 8] | herbicidal effect rating, SAGPY [1, 9] | herbicidal effect rating, SAGPY [1, 10] | herbicidal effect rating, SAGPY [1, 11] | herbicidal effect rating, CYPSE [2, 7] | herbicidal effect rating, CYPSE [2, 8] | herbicidal effect rating, CYPSE [2, 9] | herbicidal effect rating, CYPSE [2, 10] | herbicidal effect rating, CYPSE [2, 11] | herbicidal effect rating ORYSAT [3, 12] | herbicidal effect rating ORYSAT [3, 13] | herbicidal effect rating, CYPIR [5, 7] | herbicidal effect rating, CYPIR [5, 8] | herbicidal effect rating, CYPIR [5, 9] | herbicidal effect rating, CYPIR [5, 10]

CCS(=O)(=O)NC(=O)COc1ccccc1-c1nsc2ccc(-n3c(=O)cc(C(F)(F)F)n(C)c3=O)cc12 [Example 558, Acetamide, 2-{o-{5-[3,6-dihydro-3-methyl-2,6-dioxo-4-(trifluoromethyl)-1(2H)-pyrimidinyl]-1,2-benzisothiazol-3-yl}phenoxy}-N-(ethylsulfonyl)-]
4.0: herbicidal effect rating, SAGPY [1, 9] | herbicidal effect rating, SAGPY [1, 11] | herbicidal effect rating ORYSAT [3, 12]
4.7: herbicidal effect rating, ECHORC [4, 8]
7.0: herbicidal effect rating ORYSAT [3, 13] | herbicidal effect rating, ECHORC [4, 9]
4.3: herbicidal effect rating, ECHORC [4, 7]
9.0: herbicidal effect rating, CYPSE [2, 9] | herbicidal effect rating, CYPSE [2, 10] | herbicidal effect rating, CYPSE [2, 11] | herbicidal effect rating ORYSAT [3, 14] | herbicidal effect rating ORYSAT [3, 15] | herbicidal effect rating ORYSAT [3, 16] | herbicidal effect rating, ECHORC [4, 10] | herbicidal effect rating, ECHORC [4, 11] | herbicidal effect rating, CYPIR [5, 10] | herbicidal effect rating, CYPIR [5, 11] | herbicidal effect rating, MOOVA [6, 7] | herbicidal effect rating, MOOVA [6, 8] | herbicidal effect rating, MOOVA [6, 9] | herbicidal effect rating, MOOVA [6, 10] | herbicidal effect rating, MOOVA [6, 11]
2.0: herbicidal effect rating, SAGPY [1, 7] | herbicidal effect rating, SAGPY [1, 8] | herbicidal effect rating, CYPIR [5, 7]
6.0: herbicidal effect rating, CYPIR [5, 8]
8.0: herbicidal effect rating, SAGPY [1, 10] | herbicidal effect rating, CYPIR [5, 9]

CC(Oc1ccccc1-c1nsc2ccc(-n3c(=O)cc(C(F)(F)F)n(C)c3=O)cc12)C(=O)O (stereo not shown) [Example 314, Propionic acid, 2-{o-{5-[3,6-dihydro-3-methyl-2,6-dioxo-4-(trifluoromethyl)-1(2H)-pyrimidinyl]-1,2-benzisothiazol-3-yl}phenoxy}-]
3.0: herbicidal effect rating ORYSAT ([3]; Rate 0.0320 kg/ha, rated three to four weeks after treatment) | herbicidal effect rating ORYSAT ([3]; Rate 0.0620 kg/ha, rated three to four weeks after treatment)
9.0: herbicidal effect rating, ECHORC [4, 19] | herbicidal effect rating, ECHORC [4, 20] | herbicidal effect rating, CYPIR [5, 17] | herbicidal effect rating, CYPIR [5, 18] | herbicidal effect rating, CYPIR [5, 19] | herbicidal effect rating, CYPIR [5, 20] | herbicidal effect rating, MOOVA [6, 17] | herbicidal effect rating, MOOVA [6, 18] | herbicidal effect rating, MOOVA [6, 19] | herbicidal effect rating, MOOVA [6, 20]
5.0: herbicidal effect rating ORYSAT ([3]; Rate 0.2500 kg/ha, rated three to four weeks after treatment) | herbicidal effect rating, ECHORC [4, 17] | herbicidal effect rating, ECHORC [4, 18]
0.0: herbicidal effect rating, SAGPY [1, 17] | herbicidal effect rating, SAGPY [1, 18] | herbicidal effect rating, SAGPY [1, 19] | herbicidal effect rating, SAGPY [1, 20] | herbicidal effect rating, CYPSE [2, 17] | herbicidal effect rating, CYPSE [2, 18] | herbicidal effect rating, CYPSE [2, 19] | herbicidal effect rating, CYPSE [2, 20]
4.0: herbicidal effect rating ORYSAT ([3]; Rate 0.1250 kg/ha, rated three to four weeks after treatment)

Source: patent EP0908457B1, “3-(1,2-benzisothiazol- and isoxazol-5-Y1)-2,4(1H,3H)-pyrimidinedione or thione and 3-(1,2-benzisothiazol- and isoxazol-5-y1)-4(3H)-pyrimidinone or thione herbicidal agents” (BASF AKTIENGESELLSCHAFT, priority 1997, dated 1999)
